Results published in US5066655A (priority 1989, dated 1991).
Values belong to the compound of their own block, whether it stands above or below them.

What was measured:
[1] = target: T1, A1 adenosine receptor (guinea pig atrium) (Cavia porcellus, UniProt P47745); assay: Antagonism of adenosine agonists in isolated guinea pig left atrium (force of contraction); details: for antagonism of adenosine agonists in atria / basal force of contraction in the atria: guinea pig atria; for antagonism of adenosine agonists in atria: result in words
T1 construct: The left atria from male guinea pigs were isolated; from tissue; host or cells: left atria of male guinea pigs
T1 sequence (P47745 1-326): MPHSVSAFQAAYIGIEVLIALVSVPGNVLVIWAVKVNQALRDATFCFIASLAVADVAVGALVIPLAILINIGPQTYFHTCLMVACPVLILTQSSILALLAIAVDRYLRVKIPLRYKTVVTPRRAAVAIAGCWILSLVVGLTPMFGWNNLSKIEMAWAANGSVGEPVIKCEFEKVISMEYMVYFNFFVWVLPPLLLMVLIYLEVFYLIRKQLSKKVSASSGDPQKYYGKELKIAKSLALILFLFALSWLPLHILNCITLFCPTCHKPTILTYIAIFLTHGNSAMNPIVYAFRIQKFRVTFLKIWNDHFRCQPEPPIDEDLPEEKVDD
Experimental: The left atria from male guinea pigs were isolated, suspended between two punctate electrodes, and placed in a 20 ml organ bath that contained Krebs-Hensileit solution that was continuously gassed with 95% O2 + 5% CO2 and maintained at 31° C. The resting tension was one gram. Theatria were stimulated electrically at 1 hz, 1 ms duration pulses at supramaximal voltage. The force of contraction was recorded isometrically.
(§1) The ability of the compounds to antagonize the effects of agonists was analyzed using modified Schild plots.

[2] = tested on: A2 adenosine receptor (guinea pig taenia caecum); assay: Antagonism of adenosine agonists in isolated guinea pig taenia caecum (contractile tone); details: for antagonism of adenosine agonists in taenia caecum: guinea pig taenia caecum relaxation; for sensitization of the tissue: guinea pig taenia caecum, high concentrations
Experimental: Taenia from the guinea pig caecum were cut into lengths of 1.5-2 cm. The tissues were suspended in a 20 ml organ bath containing de Jalon's solution that was gassed with 95% O2 + 5% CO2 and maintained at 31° C. The resting tension was 1.5 g. The contractile response was measured isotonically.
as §1

[3] = tested on: adenosine receptors (A1: heart rate; A2: blood pressure); assay: In vivo test on heart rate, blood pressure and ECG in anesthetized rats; parameters: species or system rat
Source text: Drug injections were made intravenously through a jugular cannula.

[4] = target: A2 receptors of human platelets (Homo sapiens, UniProt P29274); assay: Antagonism of NECA-induced stimulation of adenylate cyclase activity of human platelet membranes; assay type: biochemical; details: for antagonist potency at platelet A2 receptor: human platelet membranes, NECA-stimulated adenylate cyclase, result in words; for potency at platelet A2 receptor relative to PC12 A2 receptor: human platelets versus rat PC12 cells
Experimental: (§2) Human platelet, rat pheochromocytoma (PC12) cell, rat fat cell and rat cerebral cortex membranes were prepared as described (4,5,6). Adenylate cyclase activity and binding [^3 H]PIA to cerebral cortex membranes were determined essentially as described (4,5,6). KB values for the compounds were determined as described (4). […] EC50 and IC50 values for the agonists were obtained from the concentration-response curves by linear regression after logit-log transformation. KB values of the antagonists were calculated using the Schild equation KB =C/(CR-1), where C denotes the concentration of the competitor and CR the ratio of the EC50 and IC50 values in the presence and absence, respectively, of the competitor. IC50 of the compounds for inhibition of [^3 H]PIA binding to cerebral cortex membranes were transformed into Ki values as described (6).
In these cells, A2 receptor-mediated stimulation of adenylate cyclase results in an inhibition of aggregation (5,7).

[5] = target: T2, A1 receptors of rat fat cells (Rattus norvegicus, UniProt P25099); assay: Antagonism of R-PIA-induced inhibition of rat fat cell adenylate cyclase activity; assay type: biochemical; details: rat fat cell membranes, result in words
T2 sequence (P25099 1-326): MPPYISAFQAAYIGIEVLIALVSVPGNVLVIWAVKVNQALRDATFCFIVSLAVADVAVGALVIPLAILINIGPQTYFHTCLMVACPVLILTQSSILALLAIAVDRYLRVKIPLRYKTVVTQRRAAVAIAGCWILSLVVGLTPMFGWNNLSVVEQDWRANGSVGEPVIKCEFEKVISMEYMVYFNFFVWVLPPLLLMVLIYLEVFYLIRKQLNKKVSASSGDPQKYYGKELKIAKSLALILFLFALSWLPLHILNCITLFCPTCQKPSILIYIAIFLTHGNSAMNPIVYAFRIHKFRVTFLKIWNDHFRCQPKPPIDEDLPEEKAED
Experimental: as §2

A1 receptors = target: T3, A1 receptors (Rattus norvegicus, UniProt P25099); assay: Activity at A1 adenosine receptors (overall, fat cells and brain membranes); assay type: biochemical; details: discussion, fat cell and brain data
T3 sequence (P25099 1-326): T2 sequence (P25099 1-326)
Experimental: as §2

[6] = tested on: A1 and A2 adenosine receptors; assay: Activity at adenosine receptors, A1 versus A2 selectivity (overall); assay type: biochemical; details: for receptor selectivity A1 versus A2: in words; for stereoselectivity: A1 and A2 receptors
Experimental: as §2

[7] = tested on: A2 receptors of PC12 cells; details: cited from earlier work
A1 adenosine receptors = details: literature; cited from earlier work

A2 receptors of human platelets, sequence (P29274 whole entry): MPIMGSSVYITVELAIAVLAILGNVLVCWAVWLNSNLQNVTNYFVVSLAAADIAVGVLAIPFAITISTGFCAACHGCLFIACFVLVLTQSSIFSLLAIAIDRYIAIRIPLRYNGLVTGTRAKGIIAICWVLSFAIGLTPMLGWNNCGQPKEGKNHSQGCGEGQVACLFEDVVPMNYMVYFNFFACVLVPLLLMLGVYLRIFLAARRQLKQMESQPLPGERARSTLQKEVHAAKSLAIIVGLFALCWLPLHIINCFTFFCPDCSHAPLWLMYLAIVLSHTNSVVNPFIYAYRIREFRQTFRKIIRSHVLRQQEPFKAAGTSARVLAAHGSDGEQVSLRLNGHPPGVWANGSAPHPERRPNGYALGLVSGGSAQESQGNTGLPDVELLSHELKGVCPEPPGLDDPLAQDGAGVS

- antagonism of adenosine agonists in atria [1]: competitive antagonists
- antagonism of adenosine agonists in atria ([1]; listed as Ex. 22): most potent antagonist
- Kb ([1]; read-out: Affinity constants (pKB) (converted)): 525 nM
Structure (SMILES): Cn1cnc2c(N[C@H]3C[C@H]4CC[C@@H]3C4)ncnc21 (relative stereo) [Example 22, N^6-(endonorbornyl)-9-MA]
- antagonism of adenosine agonists in taenia caecum [2]: did not competitively antagonize the effects of adenosine agonists
- sensitization of the tissue [2]: some sensitization of the tissue
- cardioselectivity in vivo [3]: cardioselective adenosine receptor antagonist in vivo
- effect on adenosine-induced changes of blood pressure, heart rate and P-R interval ([3]; i.v.): attenuated the effects of subsequently administered adenosine on all parameters measured
- effect on adenosine-induced heart block ([3]; i.v., high doses of adenosine): substantially reduced
- effect on NECA action on the heart ([3]; i.v., prior administration): attenuated the effects of NECA on the heart
- effect on NECA-induced decrease in blood pressure ([3]; i.v., prior administration): minimally affecting the NECA-induced decrease in blood pressure

- antagonist potency at platelet A2 receptor [4]: more potent than 9-methyladenine itself
- receptor selectivity A1 versus A2 [6]: selective for receptors
Structure (SMILES): Cn1cnc2c(NC3CCC3)ncnc21 [Example 3, N^6 -Cyclobutyl-9-MA]
- antagonist potency at A1 receptors of fat cells [5]: more potent than the parent compound 9-methyladenine
- activity at A1 receptors, in words (A1 receptors): most potent of N^6 -substituted 9-methyladenines at A1 receptors

- antagonist potency at platelet A2 receptor [4]: more potent than 9-methyladenine itself
- receptor selectivity A1 versus A2 [6]: selective for receptors
Structure (SMILES): Cn1cnc2c(NC3CCCCC3)ncnc21 [Example 6, N^6 -Cyclohexyl-9-MA]
- antagonist potency at A1 receptors of fat cells [5]: more potent than the parent compound 9-methyladenine
- activity at A1 receptors, in words (A1 receptors): most potent of N^6 -substituted 9-methyladenines at A1 receptors

Structure (SMILES): CNc1ncnc2c1ncn2C [Example 7, N^6 -Methyl-9-MA]
- antagonist potency at platelet A2 receptor [4]: much less potent than 9-methyladenine
- antagonist potency at A1 receptors of fat cells [5]: less potent than 9-methyladenine
- activity at A1 receptors, in words (A1 receptors): reduces activity

- antagonist potency at platelet A2 receptor [4]: more potent
- antagonist potency at platelet A2 receptor ([4]; listed as 3-pentyl-): enhance activity
- antagonist potency at A1 receptors of fat cells [5]: more potent than the aprent compound
- basal force of contraction in the atria [1]: increases in basal force of contraction
- antagonism of adenosine agonists in atria [1]: competitive antagonists
Structure (SMILES): CCC(CC)Nc1ncnc2c1ncn2C [Example 8, N^6-3-Pentyl-9-MA]
- potency at platelet A2 receptor relative to PC12 A2 receptor [4]: more potent at the platelet A2 receptor than at the PC12 A2 receptor
- antagonism of adenosine agonists in taenia caecum [2]: did not competitively antagonize the effects of adenosine agonists
- sensitization of the tissue [2]: some sensitization of the tissue

Structure (SMILES): Cn1c(=O)c2[nH]c(-c3ccccc3)nc2n(C)c1=O [Example 8-PT, 8-phenyltheophylline, reference compound]
- antagonism of adenosine agonists in taenia caecum [2]: did antagonize the effects of agonists at low concentrations
- sensitization of the tissue [2]: sensitization effect is also observed
- receptor selectivity A1 versus A2 [6]: nonselective adenosine receptor antagonist

- antagonist potency at platelet A2 receptor [4]: equipotent to 9-methyladenine
Structure (SMILES): Cn1cnc2c(Nc3ccccc3)ncnc21 [Example 9, N^6 -Phenyl-9-MA]
- potency at platelet A2 receptor relative to PC12 A2 receptor [4]: more potent at the platelet A2 receptor than at the PC12 A2 receptor
- antagonist potency at A1 receptors of fat cells [5]: more potent than 9-methyladenine in the fat cell

Structure (SMILES): Cn1cnc2c(Nc3ccccc3F)ncnc21 [Example 10, N^6-2-Fluorophenyl-9-MA]
- antagonist potency at platelet A2 receptor [4]: increases potency
- antagonist potency at platelet A2 receptor ([4]; listed as 2-fluorophenyl-): enhance activity
- antagonist potency at A1 receptors of fat cells [5]: more potent than 9-methyladenine in the fat cell

- antagonist potency at platelet A2 receptor [4]: less potent than 9-methyladenine
- activity at A1 receptors, in words (A1 receptors): modest activity
Structure (SMILES): Cn1cnc2c(NCc3ccccc3)ncnc21 [Example 11, N^6 -Benzyl-9-MA]

- antagonist potency at platelet A2 receptor [4]: less potent than 9-methyladenine
- antagonist potency at A1 receptors of fat cells [5]: much less potent
Structure (SMILES): Cn1cnc2c(NCCc3ccccc3)ncnc21 [Example 12, N^6-2-Phenethyl-9-MA]

- antagonist potency at platelet A2 receptor [4]: as potent as 9-methyladenine
- receptor selectivity A1 versus A2 [6]: selectivity for A2 receptors
Structure (SMILES): COc1cc(CCNc2ncnc3c2ncn3C)cc(OC)c1OC [Example 13]

- antagonist potency at platelet A2 receptor [4]: less potent than 9-methyladenine
Structure (SMILES): Cn1cnc2c(NCCc3cccnc3)ncnc21 [Example 14, N^6-2-(3-Pyridylethyl)-9-MA]

- antagonist potency at platelet A2 receptor [4]: somewhat more potent
- antagonist potency at platelet A2 receptor ([4]; listed as 2-(3 -thienylethyl)-): enhance activity
Structure (SMILES): Cn1cnc2c(NCCc3ccsc3)ncnc21 [Example 15, N^6-2-(3-Thienylethyl)-9-MA]
- antagonist potency at A1 receptors of fat cells [5]: more potent than 9-methyladenine itself in the fat cell

- antagonist potency at platelet A2 receptor [4]: more potent than the S-isomer
- antagonist potency at platelet A2 receptor ([4]; listed as R-1-phenyl-2-propyl-): enhance activity
Structure (SMILES): C[C@H](Cc1ccccc1)Nc1ncnc2c1ncn2C [Example 16, N^6 - -- R-1-Phenyl-2-propyl-9-MA]
- antagonist potency at A1 receptors of fat cells [5]: more potent than the parent compound at A1 receptors of fat cells
- stereoselectivity [6]: exhibit stereoselectivity at both A1 and A2 receptors

Structure (SMILES): C[C@@H](Cc1ccccc1)Nc1ncnc2c1ncn2C [Example 17, N^6 - -- S-1-Phenyl-2-propyl-9-MA]
- antagonist potency at A1 receptors of fat cells [5]: more potent than the parent compound at A1 receptors of fat cells
- stereoselectivity [6]: exhibit stereoselectivity at both A1 and A2 receptors

- basal force of contraction in the atria [1]: increases in basal force of contraction
- antagonism of adenosine agonists in atria [1]: competitive antagonists
Structure (SMILES): CCC(Cc1cccs1)Nc1ncnc2c1ncn2C (centres unmarked) [Example 23]

Structure (SMILES): OC[C@H]1O[C@@H](n2cnc3c(NC4CCCCC4)ncnc32)[C@H](O)[C@@H]1O [N^6 -cyclohexyl-]
- agonist potency at PC12 A2 receptors, in words [7]: more potent of the series

Structure (SMILES): CNc1ncnc2c1ncn2[C@@H]1O[C@H](CO)[C@@H](O)[C@H]1O [N^6 -methyladenosine]
- affinity/activity at A1 receptors, in words (A1 adenosine receptors): low activity

Structure (SMILES): COc1cc(CCNc2ncnc3c2ncn3[C@@H]2O[C@H](CO)[C@@H](O)[C@H]2O)cc(OC)c1OC [N^6-2-(3,4,5-trimethoxyphenylethyl)-]
- agonist potency at PC12 A2 receptors, in words [7]: more potent of the series

Structure (SMILES): OC[C@H]1O[C@@H](n2cnc3c(NCCc4cccnc4)ncnc32)[C@H](O)[C@@H]1O [N^6-2-(3-pyridylethyl)-]
- agonist potency at PC12 A2 receptors, in words [7]: more potent of the series

Structure (SMILES): OC[C@H]1O[C@@H](n2cnc3c(NCCc4ccccc4)ncnc32)[C@H](O)[C@@H]1O [N^6-2-phenethyl-]
- agonist potency at PC12 A2 receptors, in words [7]: more potent of the series

Structure (SMILES): CC1(Nc2ncnc3c2ncn3[C@@H]2O[C@H](CO)[C@@H](O)[C@H]2O)CCCC1 [N^6-(1-methylcyclopentyl)adenosine]
- affinity/activity at A1 receptors, in words (A1 adenosine receptors): reduced compared to N^6 -cyclopentyladenosine
